From article PMC6917776, “Discovery of a chemical probe for PRDM9” (Nature Communications, 2019)
Where two headings read alike, the source gives them in different places.

Legend:
Experiment in all cases: Methyltransferase selectivity assay (filter-based, nucleosome substrate)
Type in all cases: biochemical
[1] = molecular target: T1, ASH1L (Homo sapiens, UniProt Q9NR48)
T1 construct: purchased Structural Genomics Consortium (SGC Toronto) in-house methyltransferase panel
Procedure: (§1) Selectivity against methyltransferases were determined as described previously. Details of the assays are described in the supplementary methods.
(§2) Methyltransferase selectivity assay1
(§3) The effect of chemical probes and negative controls on the methyltransferase activities of protein, DNA and RNA methyltransferases was tested by radiometric assays using 3H-SAM. […]
(§4) The CPM in the absence of compound or enzyme was defined as 100% activity and background (0%), respectively, for each dataset. […]
(§5) For proteins which were tested with nucleosome as substrate such as DOT1L, NSD1, NSD2, NSD3, and ASH1L, or unbiotinylated Poly(2′-deoxyinosinic-2′-deoxycytidylic acid) (Cat# 81349-500UG, Sigma Aldrich) such as DNMT3A/3L, and DNMT3B/3L, a filter-based assay was used. In this assay, a trichloroacetic acid (TCA) protein precipitation protocol was employed. A 10 µL reaction mixture was incubated at 23°C for 1 h, followed by addition of 50 µL of 10% TCA. The mixture was transferred to filter plates (Millipore, Billerica, MA, USA) that were centrifuged at 2000 rpm (Allegra X-15R; Beckman Coulter, Brea, CA, USA) for 2 min. Samples were washed twice with 10% TCA and once with ethanol (180 µL), and centrifuged. After drying, 100 µL MicroScint-O (Perkin Elmer) was added to each well and the plates were centrifuged to remove the liquid. A 70 µL volume of MicroScint-O was added and the CPM was measured with a TopCount plate reader.

[2] = molecular target: T2, DOT1L (Homo sapiens, UniProt Q8TEK3)
T2 construct: purchased Structural Genomics Consortium (SGC Toronto) in-house methyltransferase panel
T2 sequence (Q8TEK3 whole entry): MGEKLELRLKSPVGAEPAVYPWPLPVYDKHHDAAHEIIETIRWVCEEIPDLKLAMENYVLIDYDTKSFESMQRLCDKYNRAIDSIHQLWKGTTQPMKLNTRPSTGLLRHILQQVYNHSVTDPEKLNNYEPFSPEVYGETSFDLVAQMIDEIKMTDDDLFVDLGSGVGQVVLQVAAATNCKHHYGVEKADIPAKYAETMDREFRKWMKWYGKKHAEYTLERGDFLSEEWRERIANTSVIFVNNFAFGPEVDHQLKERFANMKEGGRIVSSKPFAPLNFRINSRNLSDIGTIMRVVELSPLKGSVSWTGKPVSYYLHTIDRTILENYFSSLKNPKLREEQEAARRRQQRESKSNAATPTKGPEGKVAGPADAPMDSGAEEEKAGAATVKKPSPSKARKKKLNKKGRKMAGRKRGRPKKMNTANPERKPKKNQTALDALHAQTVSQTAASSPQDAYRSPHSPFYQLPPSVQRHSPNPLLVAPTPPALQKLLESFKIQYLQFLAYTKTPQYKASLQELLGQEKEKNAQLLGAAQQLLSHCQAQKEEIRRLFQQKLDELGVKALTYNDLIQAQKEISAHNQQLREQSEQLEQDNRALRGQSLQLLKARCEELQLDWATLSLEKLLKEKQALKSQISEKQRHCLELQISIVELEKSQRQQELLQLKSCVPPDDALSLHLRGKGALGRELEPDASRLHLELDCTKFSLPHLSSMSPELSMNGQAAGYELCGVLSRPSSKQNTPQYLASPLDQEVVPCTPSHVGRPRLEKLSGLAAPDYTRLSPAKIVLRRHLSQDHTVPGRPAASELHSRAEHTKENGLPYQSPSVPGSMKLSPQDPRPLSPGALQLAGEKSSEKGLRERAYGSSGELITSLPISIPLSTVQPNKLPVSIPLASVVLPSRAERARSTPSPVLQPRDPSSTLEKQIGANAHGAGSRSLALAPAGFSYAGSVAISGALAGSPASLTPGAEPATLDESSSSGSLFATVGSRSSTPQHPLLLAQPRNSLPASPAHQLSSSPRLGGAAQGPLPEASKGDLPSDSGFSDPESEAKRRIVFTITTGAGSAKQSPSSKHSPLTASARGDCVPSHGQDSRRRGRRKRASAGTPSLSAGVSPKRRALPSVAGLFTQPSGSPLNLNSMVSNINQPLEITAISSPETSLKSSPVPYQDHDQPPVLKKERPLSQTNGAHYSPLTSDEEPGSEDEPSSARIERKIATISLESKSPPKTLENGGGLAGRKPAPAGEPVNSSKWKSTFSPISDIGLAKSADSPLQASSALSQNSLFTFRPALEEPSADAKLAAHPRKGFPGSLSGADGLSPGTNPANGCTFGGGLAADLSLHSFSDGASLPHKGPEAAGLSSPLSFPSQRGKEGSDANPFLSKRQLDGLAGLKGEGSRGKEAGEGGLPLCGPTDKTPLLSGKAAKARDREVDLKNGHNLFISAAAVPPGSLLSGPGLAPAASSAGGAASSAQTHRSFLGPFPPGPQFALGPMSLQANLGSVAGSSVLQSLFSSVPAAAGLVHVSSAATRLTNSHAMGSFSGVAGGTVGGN
Procedure: as §1, §2, §3, §4, §5

[3] = molecular target: T3, NSD1 (Homo sapiens, UniProt Q96L73)
T3 construct: purchased Structural Genomics Consortium (SGC Toronto) in-house methyltransferase panel
T3 sequence (Q96L73 whole entry): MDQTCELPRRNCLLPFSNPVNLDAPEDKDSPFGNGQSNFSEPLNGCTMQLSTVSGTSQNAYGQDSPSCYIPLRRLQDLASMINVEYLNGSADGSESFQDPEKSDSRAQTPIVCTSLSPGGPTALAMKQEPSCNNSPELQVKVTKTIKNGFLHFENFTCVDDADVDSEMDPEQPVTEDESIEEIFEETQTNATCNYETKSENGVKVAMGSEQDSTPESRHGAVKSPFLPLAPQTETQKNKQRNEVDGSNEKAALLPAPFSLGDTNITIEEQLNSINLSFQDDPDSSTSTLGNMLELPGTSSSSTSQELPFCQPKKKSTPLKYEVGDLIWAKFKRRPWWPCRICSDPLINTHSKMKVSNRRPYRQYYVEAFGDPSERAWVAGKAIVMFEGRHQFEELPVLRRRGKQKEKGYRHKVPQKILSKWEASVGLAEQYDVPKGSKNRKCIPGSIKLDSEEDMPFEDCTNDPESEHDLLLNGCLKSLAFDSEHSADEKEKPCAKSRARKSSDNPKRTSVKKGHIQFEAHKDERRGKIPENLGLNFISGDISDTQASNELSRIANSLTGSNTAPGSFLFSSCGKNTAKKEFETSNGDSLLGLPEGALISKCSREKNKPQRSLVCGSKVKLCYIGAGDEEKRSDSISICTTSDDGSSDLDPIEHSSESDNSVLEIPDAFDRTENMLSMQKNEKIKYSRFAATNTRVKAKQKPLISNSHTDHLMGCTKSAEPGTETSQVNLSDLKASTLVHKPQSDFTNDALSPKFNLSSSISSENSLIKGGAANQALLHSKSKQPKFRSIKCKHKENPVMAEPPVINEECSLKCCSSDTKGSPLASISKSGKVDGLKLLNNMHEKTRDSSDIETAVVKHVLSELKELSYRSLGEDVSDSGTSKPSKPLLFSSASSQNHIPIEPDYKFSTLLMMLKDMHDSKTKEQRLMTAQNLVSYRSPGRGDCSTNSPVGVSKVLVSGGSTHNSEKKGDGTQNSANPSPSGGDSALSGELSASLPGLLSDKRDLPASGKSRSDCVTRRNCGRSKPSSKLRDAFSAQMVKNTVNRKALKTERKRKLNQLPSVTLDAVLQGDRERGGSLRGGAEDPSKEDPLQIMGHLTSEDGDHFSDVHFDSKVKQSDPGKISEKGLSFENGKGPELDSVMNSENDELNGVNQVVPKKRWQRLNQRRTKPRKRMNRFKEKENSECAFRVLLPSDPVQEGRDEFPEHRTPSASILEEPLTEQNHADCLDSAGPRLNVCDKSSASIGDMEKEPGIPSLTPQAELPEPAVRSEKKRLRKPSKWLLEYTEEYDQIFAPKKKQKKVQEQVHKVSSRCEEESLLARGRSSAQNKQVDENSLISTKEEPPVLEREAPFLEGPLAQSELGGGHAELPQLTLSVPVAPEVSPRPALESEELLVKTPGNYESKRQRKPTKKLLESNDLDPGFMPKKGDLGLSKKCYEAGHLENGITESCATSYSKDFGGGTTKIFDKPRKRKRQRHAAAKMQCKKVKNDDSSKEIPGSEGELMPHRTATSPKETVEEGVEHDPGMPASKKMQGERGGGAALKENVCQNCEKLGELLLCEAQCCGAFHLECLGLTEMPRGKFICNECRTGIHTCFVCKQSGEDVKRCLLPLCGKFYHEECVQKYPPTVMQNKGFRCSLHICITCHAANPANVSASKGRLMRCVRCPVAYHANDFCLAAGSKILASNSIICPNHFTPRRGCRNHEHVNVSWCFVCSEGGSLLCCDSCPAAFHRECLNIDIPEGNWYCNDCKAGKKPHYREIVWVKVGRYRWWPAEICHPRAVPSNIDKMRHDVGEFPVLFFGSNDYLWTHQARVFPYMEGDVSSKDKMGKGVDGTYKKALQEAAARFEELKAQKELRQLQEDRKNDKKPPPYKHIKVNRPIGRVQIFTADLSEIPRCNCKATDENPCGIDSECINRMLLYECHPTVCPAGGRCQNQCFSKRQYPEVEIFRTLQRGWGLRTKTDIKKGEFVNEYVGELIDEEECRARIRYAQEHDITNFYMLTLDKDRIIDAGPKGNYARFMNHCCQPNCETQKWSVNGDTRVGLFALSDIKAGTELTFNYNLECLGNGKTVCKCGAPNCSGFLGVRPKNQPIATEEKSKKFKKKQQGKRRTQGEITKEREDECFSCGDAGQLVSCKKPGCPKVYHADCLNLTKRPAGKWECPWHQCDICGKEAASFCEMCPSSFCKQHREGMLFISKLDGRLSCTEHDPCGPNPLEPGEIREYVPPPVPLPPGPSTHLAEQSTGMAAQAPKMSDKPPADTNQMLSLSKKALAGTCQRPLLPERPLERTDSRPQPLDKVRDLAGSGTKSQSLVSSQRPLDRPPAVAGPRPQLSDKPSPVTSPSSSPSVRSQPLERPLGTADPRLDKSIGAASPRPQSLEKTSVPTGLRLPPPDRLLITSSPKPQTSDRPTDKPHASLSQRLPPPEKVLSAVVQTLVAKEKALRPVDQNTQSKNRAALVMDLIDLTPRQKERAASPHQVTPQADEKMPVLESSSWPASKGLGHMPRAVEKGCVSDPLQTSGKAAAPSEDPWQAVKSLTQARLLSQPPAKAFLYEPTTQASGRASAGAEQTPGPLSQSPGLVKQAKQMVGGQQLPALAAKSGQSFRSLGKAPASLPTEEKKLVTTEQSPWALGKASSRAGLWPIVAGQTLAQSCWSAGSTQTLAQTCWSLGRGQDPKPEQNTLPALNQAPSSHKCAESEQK
Procedure: as §1, §2, §3, §4, §5

[4] = molecular target: T4, NSD3 (Homo sapiens, UniProt Q9BZ95); settings: for activity at 1 µM: 1µM compound; for activity at 10 µM / Activity %: 10µM compound; for Activity %: Exp1, Exp2, 10 µM
T4 construct: purchased Structural Genomics Consortium (SGC Toronto) in-house methyltransferase panel
T4 sequence (Q9BZ95 1-1437): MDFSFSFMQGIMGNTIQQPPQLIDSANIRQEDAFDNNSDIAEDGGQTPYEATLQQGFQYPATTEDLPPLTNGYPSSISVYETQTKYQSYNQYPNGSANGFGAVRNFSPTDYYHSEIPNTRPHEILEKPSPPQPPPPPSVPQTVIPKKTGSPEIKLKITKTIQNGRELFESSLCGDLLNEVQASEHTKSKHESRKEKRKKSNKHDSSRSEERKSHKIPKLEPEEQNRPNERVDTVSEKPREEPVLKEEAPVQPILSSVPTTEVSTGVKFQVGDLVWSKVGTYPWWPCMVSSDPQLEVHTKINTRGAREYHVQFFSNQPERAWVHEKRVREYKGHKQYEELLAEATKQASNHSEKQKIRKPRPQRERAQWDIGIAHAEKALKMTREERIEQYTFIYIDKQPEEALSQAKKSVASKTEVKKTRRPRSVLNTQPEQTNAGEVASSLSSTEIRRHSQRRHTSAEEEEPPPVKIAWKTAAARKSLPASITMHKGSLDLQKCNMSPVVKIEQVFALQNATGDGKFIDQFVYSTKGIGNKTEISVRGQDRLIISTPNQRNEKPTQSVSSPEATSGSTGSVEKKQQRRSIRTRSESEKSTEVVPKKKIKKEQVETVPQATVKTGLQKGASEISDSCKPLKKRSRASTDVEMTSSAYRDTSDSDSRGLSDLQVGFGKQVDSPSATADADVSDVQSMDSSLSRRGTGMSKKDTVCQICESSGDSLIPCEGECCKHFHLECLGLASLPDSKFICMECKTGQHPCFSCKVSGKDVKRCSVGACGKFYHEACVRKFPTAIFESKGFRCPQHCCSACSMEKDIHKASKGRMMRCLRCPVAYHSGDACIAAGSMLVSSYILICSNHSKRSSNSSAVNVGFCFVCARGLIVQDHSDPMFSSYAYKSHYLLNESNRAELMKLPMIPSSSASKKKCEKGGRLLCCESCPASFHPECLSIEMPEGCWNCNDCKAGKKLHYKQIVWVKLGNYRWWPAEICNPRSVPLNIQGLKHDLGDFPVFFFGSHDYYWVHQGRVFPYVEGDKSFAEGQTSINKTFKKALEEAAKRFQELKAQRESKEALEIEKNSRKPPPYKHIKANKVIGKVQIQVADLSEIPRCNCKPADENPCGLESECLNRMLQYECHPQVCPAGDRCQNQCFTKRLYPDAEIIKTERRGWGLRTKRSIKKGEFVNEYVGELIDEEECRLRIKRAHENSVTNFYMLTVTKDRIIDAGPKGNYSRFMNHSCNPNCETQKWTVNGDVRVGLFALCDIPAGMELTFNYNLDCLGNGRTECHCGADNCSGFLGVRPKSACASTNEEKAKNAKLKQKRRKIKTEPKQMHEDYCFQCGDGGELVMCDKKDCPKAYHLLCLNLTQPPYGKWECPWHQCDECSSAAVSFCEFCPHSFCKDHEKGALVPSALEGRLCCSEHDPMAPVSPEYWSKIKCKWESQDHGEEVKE
Procedure: as §1, §2, §3, §4, §5

[5] = 10µM compound, Exp1, Exp2, 10 µM
[6] = 1µM compound, Exp1, Exp2, read-out: Activity %
[7] = 10µM compound, Exp1, Exp2, read-out: Activity %
[8] = Exp1, Exp2, read-out: Activity %

## COc1cc(OC)cc(-c2noc(N3CCN(C)C4(CCN(c5ccccc5)CC4)C3)n2)c1 [MRK-740 -NC]
[1]; 1µM compound, Exp1, Exp2
  activity at 1 µM: 100%
[1]; 10µM compound, Exp1, Exp2
  activity at 10 µM: 99%
[1]; [5]
  Activity %: 98%
[2]; 1µM compound, Exp1, Exp2
  activity at 1 µM: 104%
[2]; 1µM compound, Exp1, Exp2, 1 µM
  Activity %: 102%
[2]; 10µM compound, Exp1, Exp2
  activity at 10 µM: 100%
[2]; [5]
  Activity %: 99%
[3]; 1µM compound, Exp1, Exp2
  activity at 1 µM: 103%
[3]; 10µM compound, Exp1, Exp2
  activity at 10 µM: 100%
[3]; [5]
  Activity %: 99%
[4]; Exp1, Exp2
  activity at 1 µM: 97%
  activity at 10 µM: 95%
[4]
  Activity %: 93%

## COc1cc(OC)cc(-c2noc(N3CCN(C)C4(CCN(c5ccnc(C)c5)CC4)C3)n2)c1 [MRK-740]
[1]; 1µM compound, Exp1, Exp2, 1 µM
  Activity %: 102%
[1]; [6]
  activity at 1 µM: 113%
[1]; [7]
  activity at 10 µM: 93%
[2]; 1µM compound, Exp1, Exp2, 1 µM
  Activity %: 100%
[2]; [6]
  activity at 1 µM: 98%
[2]; [7]
  activity at 10 µM: 97%
[3]; 1µM compound, Exp1, Exp2, 1 µM
  Activity %: 97%
[3]; [6]
  activity at 1 µM: 96%
[3]; [5]
  Activity %: 98%
[3]; [7]
  activity at 10 µM: 106%
[4]; [8]
  activity at 1 µM: 89%
  activity at 10 µM: 95%
[4]
  Activity %: 99%
